# Test results reported in ChEMBL document CHEMBL3826966, “A chromatography-free isolation of rohitukine from leaves of Dysoxylum binectariferum: Evaluation for in vitro cytotoxicity, Cdk inhibition and physicochemical properties” (Bioorg Med Chem Lett, 2016).
# What was measured:
# [1] = molecular target: Ribosomal protein S6 kinase alpha-5 (Homo sapiens) (UniProt O75582); assay: Inhibition of human MSK1 (2 to 802 residues) assessed as remaining enzyme activity at 50 uM after 30 mins by 33P-ATP filter-binding assay
# [2] = molecular target: Calcium/calmodulin-dependent protein kinase type 1 (Homo sapiens) (UniProt Q14012); assay: Inhibition of human CAMK1 (1 to 541 residues) assessed as remaining enzyme activity at 50 uM after 30 mins by 33P-ATP filter-binding assay
# [3] = molecular target: Death-associated protein kinase 1 (Homo sapiens) (UniProt P53355); assay: Inhibition of human DAPK1 (1 to 363) assessed as remaining enzyme activity at 50 uM after 30 mins by 33P-ATP filter-binding assay
# [4] = molecular target: CDK2/Cyclin A2 (Homo sapiens) (UniProt P24941+P20248); assay: Inhibition of human Cdk2/cyclin A assessed as remaining enzyme activity at 50 uM after 30 mins by 33P-ATP filter-binding assay; format: protein-complex assay
# [5] = molecular target: CDK9/cyclin T1 (Homo sapiens) (UniProt O60563+P50750); assay: Inhibition of human Cdk9/T1 using YSPTSPSYSPTSPSYSPTSPKKK peptide as substrate assessed as remaining enzyme activity at 50 uM after 30 mins by 33P-ATP filter-binding assay; format: protein-complex assay
# [6] = molecular target: Serine/threonine-protein kinase tousled-like 1 (Homo sapiens) (UniProt Q9UKI8); assay: Inhibition of human TLK1 (1 to 766 residues) assessed as remaining enzyme activity at 50 uM after 30 mins by 33P-ATP filter-binding assay
# Sequence of Serine/threonine-protein kinase tousled-like 1 (Homo sapiens) (Q9UKI8 whole entry, the tested form may be a part): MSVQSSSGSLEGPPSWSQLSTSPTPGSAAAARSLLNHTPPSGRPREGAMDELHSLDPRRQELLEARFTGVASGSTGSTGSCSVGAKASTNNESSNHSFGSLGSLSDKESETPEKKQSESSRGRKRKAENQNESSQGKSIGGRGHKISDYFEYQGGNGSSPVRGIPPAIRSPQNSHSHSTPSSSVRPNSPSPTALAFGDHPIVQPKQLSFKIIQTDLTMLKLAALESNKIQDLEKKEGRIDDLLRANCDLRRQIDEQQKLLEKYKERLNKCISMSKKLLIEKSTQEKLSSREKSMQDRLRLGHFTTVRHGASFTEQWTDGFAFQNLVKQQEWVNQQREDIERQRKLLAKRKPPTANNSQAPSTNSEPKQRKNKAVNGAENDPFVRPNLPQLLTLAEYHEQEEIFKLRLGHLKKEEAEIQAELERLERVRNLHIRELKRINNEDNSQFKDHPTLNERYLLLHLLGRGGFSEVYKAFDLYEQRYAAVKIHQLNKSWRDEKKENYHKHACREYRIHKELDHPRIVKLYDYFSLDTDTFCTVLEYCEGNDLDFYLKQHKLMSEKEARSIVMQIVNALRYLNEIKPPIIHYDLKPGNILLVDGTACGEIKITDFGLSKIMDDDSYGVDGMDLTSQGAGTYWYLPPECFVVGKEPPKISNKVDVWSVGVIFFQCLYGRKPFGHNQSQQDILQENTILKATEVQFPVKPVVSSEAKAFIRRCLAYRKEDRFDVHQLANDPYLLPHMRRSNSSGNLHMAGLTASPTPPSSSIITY
# [7] = molecular target: Casein kinase II (Homo sapiens) (UniProt P67870+P68400+P19784); assay: Inhibition of human CK2 assessed as remaining enzyme activity at 50 uM after 30 mins by 33P-ATP filter-binding assay; format: protein-complex assay
# [8] = molecular target: Eukaryotic elongation factor 2 kinase (Homo sapiens) (UniProt O00418); assay: Inhibition of human EF2K (2 to 725 residues) assessed as remaining enzyme activity at 50 uM after 30 mins by 33P-ATP filter-binding assay
# [9] = molecular target: Serine/threonine-protein kinase PAK 2 (Homo sapiens) (UniProt Q13177); assay: Inhibition of human PAK2 assessed as remaining enzyme activity at 50 uM after 30 mins by 33P-ATP filter-binding assay
# [10] = molecular target: Serine/threonine-protein kinase PAK 5 (Homo sapiens) (UniProt Q9P286); assay: Inhibition of human PAK5 (2 to 719 residues) assessed as remaining enzyme activity at 50 uM after 30 mins by 33P-ATP filter-binding assay
# Sequence of Serine/threonine-protein kinase PAK 5 (Homo sapiens) (Q9P286 whole entry, looked up, the tested form may be a part): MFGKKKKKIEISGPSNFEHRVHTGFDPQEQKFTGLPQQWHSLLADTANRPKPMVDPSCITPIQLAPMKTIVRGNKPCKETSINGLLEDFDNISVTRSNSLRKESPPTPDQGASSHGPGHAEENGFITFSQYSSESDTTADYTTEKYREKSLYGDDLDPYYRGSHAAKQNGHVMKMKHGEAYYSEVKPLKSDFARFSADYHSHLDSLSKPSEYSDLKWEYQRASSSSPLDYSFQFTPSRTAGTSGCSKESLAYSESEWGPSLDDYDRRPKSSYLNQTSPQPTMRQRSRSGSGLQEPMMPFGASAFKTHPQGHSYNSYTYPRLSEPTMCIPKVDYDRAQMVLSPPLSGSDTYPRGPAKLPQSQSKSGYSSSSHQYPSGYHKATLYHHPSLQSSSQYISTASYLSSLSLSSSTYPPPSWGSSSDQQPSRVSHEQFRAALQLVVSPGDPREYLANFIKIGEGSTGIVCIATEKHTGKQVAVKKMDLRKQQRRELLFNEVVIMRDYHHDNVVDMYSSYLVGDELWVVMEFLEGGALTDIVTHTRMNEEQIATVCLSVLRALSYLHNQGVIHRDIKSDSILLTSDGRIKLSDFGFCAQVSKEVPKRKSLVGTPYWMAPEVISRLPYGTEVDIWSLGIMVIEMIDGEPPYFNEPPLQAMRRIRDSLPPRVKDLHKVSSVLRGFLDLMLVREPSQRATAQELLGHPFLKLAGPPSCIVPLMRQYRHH
# [11] = molecular target: Serine/threonine-protein kinase 26 (Homo sapiens) (UniProt Q9P289); assay: Inhibition of human MST4 (2 to 416 residues) assessed as remaining enzyme activity at 50 uM after 30 mins by 33P-ATP filter-binding assay
# Sequence of Serine/threonine-protein kinase 26 (Homo sapiens) (Q9P289 2-416 limits assumed): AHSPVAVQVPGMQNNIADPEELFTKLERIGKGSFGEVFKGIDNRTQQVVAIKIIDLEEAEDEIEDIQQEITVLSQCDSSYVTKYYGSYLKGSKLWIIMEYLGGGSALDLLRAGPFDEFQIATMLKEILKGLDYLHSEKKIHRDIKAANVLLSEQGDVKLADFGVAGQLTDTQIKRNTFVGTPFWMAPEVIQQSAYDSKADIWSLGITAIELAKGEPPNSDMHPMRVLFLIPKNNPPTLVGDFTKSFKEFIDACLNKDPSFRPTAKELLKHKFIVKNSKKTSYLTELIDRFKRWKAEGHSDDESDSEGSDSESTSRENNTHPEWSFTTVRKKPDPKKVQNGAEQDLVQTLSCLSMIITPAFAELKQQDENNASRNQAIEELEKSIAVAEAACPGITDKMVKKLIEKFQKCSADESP
# [12] = molecular target: Interleukin-1 receptor-associated kinase 4 (Homo sapiens) (UniProt Q9NWZ3); assay: Inhibition of human IRAK4 (14 to 460 residues) assessed as remaining enzyme activity at 50 uM after 30 mins by 33P-ATP filter-binding assay
# Sequence of Interleukin-1 receptor-associated kinase 4 (Homo sapiens) (Q9NWZ3 whole entry, the tested form may be a part): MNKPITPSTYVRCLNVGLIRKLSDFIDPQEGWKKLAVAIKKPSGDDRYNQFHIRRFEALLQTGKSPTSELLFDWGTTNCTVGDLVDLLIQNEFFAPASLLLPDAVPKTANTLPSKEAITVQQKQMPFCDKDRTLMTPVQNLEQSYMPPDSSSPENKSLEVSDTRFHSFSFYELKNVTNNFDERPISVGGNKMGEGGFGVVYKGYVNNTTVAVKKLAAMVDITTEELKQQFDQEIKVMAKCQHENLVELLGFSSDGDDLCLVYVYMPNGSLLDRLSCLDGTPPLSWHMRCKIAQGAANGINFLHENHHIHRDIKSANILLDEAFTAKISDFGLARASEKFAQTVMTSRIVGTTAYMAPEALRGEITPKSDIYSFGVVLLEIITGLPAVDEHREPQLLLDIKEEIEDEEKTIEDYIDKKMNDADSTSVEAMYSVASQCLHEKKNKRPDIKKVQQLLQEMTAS
# [13] = molecular target: Tyrosine-protein kinase CSK (Homo sapiens) (UniProt P41240); assay: Inhibition of human CSK (1 to 450 residues) assessed as remaining enzyme activity at 50 uM after 30 mins by 33P-ATP filter-binding assay
# Sequence of Tyrosine-protein kinase CSK (Homo sapiens) (P41240 2-450 limits assumed): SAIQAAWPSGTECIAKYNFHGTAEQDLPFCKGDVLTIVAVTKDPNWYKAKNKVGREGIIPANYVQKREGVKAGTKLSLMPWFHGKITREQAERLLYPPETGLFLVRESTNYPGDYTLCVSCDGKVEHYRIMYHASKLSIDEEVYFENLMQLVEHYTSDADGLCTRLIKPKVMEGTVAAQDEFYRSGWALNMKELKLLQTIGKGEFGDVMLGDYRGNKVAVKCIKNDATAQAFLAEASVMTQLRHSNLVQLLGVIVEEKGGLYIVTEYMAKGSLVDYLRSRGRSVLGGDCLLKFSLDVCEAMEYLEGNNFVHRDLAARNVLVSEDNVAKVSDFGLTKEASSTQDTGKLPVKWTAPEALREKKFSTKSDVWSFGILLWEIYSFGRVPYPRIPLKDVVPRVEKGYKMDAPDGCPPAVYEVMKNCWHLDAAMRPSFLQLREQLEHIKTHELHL
# [14] = molecular target: Tyrosine-protein kinase ABL1 (Homo sapiens) (UniProt P00519); assay: Inhibition of human ABL (118 to 535 residues) assessed as remaining enzyme activity at 50 uM after 30 mins by 33P-ATP filter-binding assay
# [15] = molecular target: Tyrosine-protein kinase ZAP-70 (Homo sapiens) (UniProt P43403); assay: Inhibition of human ZAP70 (1 to 619 residues) assessed as remaining enzyme activity at 50 uM after 30 mins by 33P-ATP filter-binding assay
# [16] = molecular target: Ephrin type-A receptor 2 (Homo sapiens) (UniProt P29317); assay: Inhibition of human EPHA2 (591 to 976 residues) assessed as remaining enzyme activity at 50 uM after 30 mins by 33P-ATP filter-binding assay
# [17] = molecular target: Ephrin type-B receptor 1 (Homo sapiens) (UniProt P54762); assay: Inhibition of human EPHB1 (565 to 984 residues) assessed as remaining enzyme activity at 50 uM after 30 mins by 33P-ATP filter-binding assay
# Sequence of Ephrin type-B receptor 1 (Homo sapiens) (P54762 whole entry, the tested form may be a part): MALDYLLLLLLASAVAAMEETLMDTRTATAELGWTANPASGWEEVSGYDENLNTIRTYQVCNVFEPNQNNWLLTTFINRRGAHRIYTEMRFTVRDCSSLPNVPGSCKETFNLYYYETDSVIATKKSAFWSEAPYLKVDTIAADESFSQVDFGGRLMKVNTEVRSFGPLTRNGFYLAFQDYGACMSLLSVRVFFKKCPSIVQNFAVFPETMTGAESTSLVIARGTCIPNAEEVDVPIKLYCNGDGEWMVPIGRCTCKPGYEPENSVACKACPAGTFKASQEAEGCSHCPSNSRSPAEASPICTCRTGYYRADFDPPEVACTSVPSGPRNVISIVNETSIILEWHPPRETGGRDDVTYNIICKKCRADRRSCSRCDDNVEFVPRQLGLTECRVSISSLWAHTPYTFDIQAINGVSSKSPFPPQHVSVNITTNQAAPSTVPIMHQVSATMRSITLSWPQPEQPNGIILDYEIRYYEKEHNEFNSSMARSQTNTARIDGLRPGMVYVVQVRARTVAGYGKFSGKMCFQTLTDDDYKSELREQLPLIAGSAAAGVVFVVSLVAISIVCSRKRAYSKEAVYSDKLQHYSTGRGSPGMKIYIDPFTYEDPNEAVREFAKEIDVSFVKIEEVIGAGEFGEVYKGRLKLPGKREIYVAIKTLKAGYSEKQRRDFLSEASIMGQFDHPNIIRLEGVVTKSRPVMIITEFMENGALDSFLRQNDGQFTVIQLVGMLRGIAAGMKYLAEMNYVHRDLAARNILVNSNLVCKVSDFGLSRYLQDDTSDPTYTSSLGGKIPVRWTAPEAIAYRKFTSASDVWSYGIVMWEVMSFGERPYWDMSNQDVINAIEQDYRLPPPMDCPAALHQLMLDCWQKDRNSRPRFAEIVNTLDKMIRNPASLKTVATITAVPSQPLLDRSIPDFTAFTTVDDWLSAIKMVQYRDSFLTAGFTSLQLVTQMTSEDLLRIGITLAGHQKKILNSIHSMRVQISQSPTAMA
# [18] = molecular target: Insulin receptor (Homo sapiens) (UniProt P06213); assay: Inhibition of human IR (1001 to 1382 residues) assessed as remaining enzyme activity at 50 uM after 30 mins by 33P-ATP filter-binding assay
# [19] = molecular target: Vascular endothelial growth factor receptor (Homo sapiens) (UniProt P17948+P35916+P35968); assay: Inhibition of human VEGFR assessed as remaining enzyme activity at 50 uM after 30 mins by 33P-ATP filter-binding assay; format: protein assay
# HL-60 = assay: Induction of apoptosis in human HL60 cells assessed as apoptotic cells at 1 uM (reference value: 1 %); format: functional
# [20] = Cell cycle arrest in human HL60 cells assessed as accumulation at G1 phase at 10 uM (reference value: 59 %); format: functional, cell-based; conditions: HL-60
# [21] = Partition coefficient, logP of the compound in water/PBS buffer at pH 7.4 at 25 degC after 20 mins by shake flask method; format: physicochemical
# CDK9/cyclin T1 = CDK9/cyclin T1 (Homo sapiens, UniProt P50750); assay: Inhibition of human Cdk9/T1 using YSPTSPSYSPTSPSYSPTSPKKK peptide as substrate after 30 mins by 33P-ATP filter-binding assay; format: protein-complex assay
# [22] = molecular target: Aurora kinase A (Homo sapiens) (UniProt O14965); assay: Inhibition of human Aurora A (2 to 403 residues) assessed as remaining enzyme activity at 50 uM after 30 mins by 33P-ATP filter-binding assay
# Sequence of Aurora kinase A (Homo sapiens) (O14965 whole entry, the tested form may be a part): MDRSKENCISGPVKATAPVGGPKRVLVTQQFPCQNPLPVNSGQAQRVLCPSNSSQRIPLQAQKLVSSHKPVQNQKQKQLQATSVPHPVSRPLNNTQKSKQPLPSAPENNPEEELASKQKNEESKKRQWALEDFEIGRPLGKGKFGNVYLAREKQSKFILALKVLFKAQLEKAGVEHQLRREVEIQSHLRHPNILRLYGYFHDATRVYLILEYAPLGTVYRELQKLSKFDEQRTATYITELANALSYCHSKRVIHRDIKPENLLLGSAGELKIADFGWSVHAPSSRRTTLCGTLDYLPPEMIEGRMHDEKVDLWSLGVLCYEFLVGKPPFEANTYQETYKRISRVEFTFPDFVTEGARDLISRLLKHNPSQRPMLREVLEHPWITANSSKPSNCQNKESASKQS
# LNCaP = assay: Cytotoxicity against human LNCAP cells assessed as cell growth inhibition after 48 hrs by MTT assay; format: functional
# [23] = Cytotoxicity against human Hs578T cells assessed as cell growth inhibition after 48 hrs by MTT assay; format: functional; conditions: Hs-578T
# T47D = assay: Cytotoxicity against human T47D cells assessed as cell growth inhibition after 48 hrs by MTT assay; format: functional
# [24] = molecular target: Dual specificity mitogen-activated protein kinase kinase 6 (Homo sapiens) (UniProt P52564); assay: Inhibition of human MKK6 (2 to 334 residues) assessed as remaining enzyme activity at 50 uM after 30 mins by 33P-ATP filter-binding assay
# Sequence of Dual specificity mitogen-activated protein kinase kinase 6 (Homo sapiens) (P52564 whole entry, the tested form may be a part): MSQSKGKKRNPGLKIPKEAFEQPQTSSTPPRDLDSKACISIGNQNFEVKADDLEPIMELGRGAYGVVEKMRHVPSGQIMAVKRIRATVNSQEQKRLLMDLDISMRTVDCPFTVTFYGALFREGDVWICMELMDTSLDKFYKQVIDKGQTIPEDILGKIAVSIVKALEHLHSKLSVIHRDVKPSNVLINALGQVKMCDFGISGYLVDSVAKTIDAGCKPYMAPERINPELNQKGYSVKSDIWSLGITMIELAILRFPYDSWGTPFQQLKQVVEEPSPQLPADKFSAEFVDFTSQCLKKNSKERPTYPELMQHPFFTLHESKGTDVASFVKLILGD
# [25] = molecular target: Mitogen-activated protein kinase 9 (Homo sapiens) (UniProt P45984); assay: Inhibition of human JNK2 (1 to 424 residues) assessed as remaining enzyme activity at 50 uM after 30 mins by 33P-ATP filter-binding assay
# Sequence of Mitogen-activated protein kinase 9 (Homo sapiens) (P45984 whole entry, looked up, the tested form may be a part): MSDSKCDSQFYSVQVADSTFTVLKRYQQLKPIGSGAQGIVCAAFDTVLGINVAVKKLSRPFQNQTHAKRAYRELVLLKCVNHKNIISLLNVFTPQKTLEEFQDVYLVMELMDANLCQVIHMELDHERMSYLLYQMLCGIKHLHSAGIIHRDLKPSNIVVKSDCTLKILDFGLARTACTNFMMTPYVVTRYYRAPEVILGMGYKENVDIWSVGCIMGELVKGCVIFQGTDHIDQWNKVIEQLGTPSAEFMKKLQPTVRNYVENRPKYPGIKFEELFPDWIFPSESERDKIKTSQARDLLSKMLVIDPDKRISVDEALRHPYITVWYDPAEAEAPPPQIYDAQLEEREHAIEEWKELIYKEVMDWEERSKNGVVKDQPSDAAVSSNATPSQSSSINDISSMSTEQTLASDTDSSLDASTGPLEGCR
# Homo sapiens = species on record: Homo sapiens; assay: Inhibition of human PKA assessed as remaining enzyme activity at 50 uM after 30 mins by 33P-ATP filter-binding assay
# [26] = molecular target: Serine/threonine-protein kinase N2 (Homo sapiens) (UniProt Q16513); assay: Inhibition of human PRK2 (501 to 984 residues) assessed as remaining enzyme activity at 50 uM after 30 mins by 33P-ATP filter-binding assay
smiles,measurement,setting,value
Cc1cc(=O)c2c(O)cc(O)c([C@H]3CCN(C)C[C@H]3O)c2o1 [ROHITUKINE],Activity,[1],30%
same,Activity,[2],76%
same,Activity,[3],96%
same,Activity,[4],16%
same,Activity,[5],7%
same,Activity,[6],109%
same,Activity,[7],90%
same,Activity,[8],84%
same,Activity,[9],88%
same,Activity,[10],87%
same,Activity,[11],68%
same,Activity,[12],75%
same,Activity,[13],79%
same,Activity,[14],87%
same,Activity,[15],103%
same,Activity,[16],38%
same,Activity,[17],54%
same,Activity,[18],91%
same,Activity,[19],18%
same,Activity,HL-60,1%
same,Activity,[20],48%
same,logD at 20 min,[21],-0.55
same,IC50,CDK9/cyclin T1,0.3 µM
same,Activity,[22],91%
same,GI50,LNCaP,30 µM
same,GI50,[23],20 µM
same,GI50,T47D,24 µM
same,Activity,[24],89%
same,Activity,[25],107%
same,Activity,Homo sapiens,88%
same,Activity,[26],42%
